Assay results: patent US20190343908A1, “Therapeutic Combination for the Treatment of Cancer” (Nerium Biotechnology Inc., priority 2011, published 2019)

How the values were obtained:
[1] = test system: LNCaP prostate cancer cell line; experiment: Crystal Violet viability assay, LNCaP; assay type: cell-based, human; conditions: for ABSORBANCE: LNCaP, 0.1 μg/mL cisplatin
Description: (§1) Three different viability assays were chosen to complement each other and yielded results dependent on concentration and cell line: the Methyl Tetrazolium dye assay, the Sulforhodamine B fluorescent dye assay, and the Crystal Violet dye assay.
The Sulforhodamine B and Crystal Violet assays provide information about protein and were used to complement the Methyl-Tetrazolium dye assay. […] It is used for the quantification of cellular proteins of cultured cells. The assay using Crystal Violet, a dye that binds electrostatically to proteins and stains DNA, provides a reliable, simple assay for measuring viability of cells.
(§2) The Methyl Tetrazolium, Sulforhodamine B, and Crystal Violet assays were used to assess cell viabilities. The incubation times were 24 hours, 48 hours, and 72 hours. The Nerium oleander extract Anvirzel™ (a hot water extract of oleander obtained from Salud Integral, Honduras) was tested in concentrations ranging from 0.01 ng/mL to 10 ng/mL.
(§3) Cells were detached by trypsinization (Trypsin-0.25% EDTA, Invitrogen, 25200-072) during the logarithmic phase of culture growth and plated in 96-well plates (18.000 cells/well) (Corning, Costar 359) in a final volume of 200 μl of medium per well. […] The absorbance was measured after 24 hours, 48 hours, and 72 hours of incubation.
For the Crystal Violet assay, the medium was removed from the 96-well plates, the plates rinsed with PBS (Sigma, P3813) and then the cells were […] by the addition of 10% formalin (MERCK, 1.04003.2500) for 20 minutes at RT. Formalin was removed and 0.25% aqueous crystal violet (Sigma, HT901), dissolved in water, was added for 10 minutes at RT. Unbound Crystal Violet was rinsed by washing with water and finally 33% acetic acid was added to dissolve the dye.
(§4) The optical density of each plate was measured on a μQuant spectrophotometer and the data were analyzed with Gen5 software (μQuant Biomolecular Spectrophotometer MQX200 and Gen5™ Microplate Data Collection & Analysis software, BioTek® Instruments. Inc, April 2008). Absorbance was measured at 570 nm for all assays and a second wavelength was measured in order to subtract noise. For the Methyl-Tetrazolium assay this second wavelength was 630 nm and for the Sulforhodamine B and Crystal Violet assays it was 690 nm.

HT55 (colorectal cancer) = experiment: Methyl-Tetrazolium viability assay, HT55; assay type: cell-based, human; design: key: absorbance (optical density) at 570 nm, second wavelength subtracted
Description: as §1
The Methyl-Tetrazolium dye assay measures the activity of enzymes in mitochondria. The dye precursor is taken up by cells, where it undergoes reduction to the purple formazan. It measures only the mitochondrial activity and, thus, it is not always a reliable indication of whether the cells themselves are alive or dead, since even a recently dead cell has […] enzyme activity in mitochondria. Intracellular glucose concentration, pH, and time before assay all affect the measurements.
as §2, §3
For the Methyl-Tetrazolium assay, the dye (Sigma, M2128; 5 mg/mL, diluted in phosphate-buffered saline) was added to each well and plates were incubated for 3 hours at 37° C. After the end of the incubation period, the medium was discarded and the cells were rinsed with phosphate-buffered saline. Finally, the formazan crystals were dissolved in dimethylsulphoxide (Sigma, D4540).
as §4

SMILES: N.N.[Cl][Pt][Cl] [cisplatin]
- CVE Average ([1]; LNCaP Run 3, 24 h, 0.1 μg/ml CDDP): 0.425
- CVE Average ([1]; LNCaP Run 3, 24 h, 1 μg/ml CDDP): 0.152
- CVE Average ([1]; LNCaP Run 3, 24 h, 10 μg/ml CDDP): 0.171
- CVE Average ([1]; LNCaP Run 3, 24 h, 100 μg/ml CDDP): 0.133
- CVE Average ([1]; LNCaP Run 3, 48 h, 0.1 μg/ml CDDP): 0.387
- CVE Average ([1]; LNCaP Run 3, 48 h, 1 μg/ml CDDP): 0.24
- CVE Average ([1]; LNCaP Run 3, 48 h, 10 μg/ml CDDP): 0.267
- CVE Average ([1]; LNCaP Run 3, 48 h, 100 μg/ml CDDP): 0.3
- CVE Average ([1]; LNCaP Run 3, 72 h, 0.1 μg/ml CDDP): 0.619
- CVE Average ([1]; LNCaP Run 3, 72 h, 1 μg/ml CDDP): 0.312
- CVE Average ([1]; LNCaP Run 3, 72 h, 10 μg/ml CDDP): 0.303
- CVE Average ([1]; LNCaP Run 3, 72 h, 100 μg/ml CDDP): 0.289
- ABSORBANCE ([1]; 48 h): 0.408
- ABSORBANCE ([1]; 72 h): 0.448
- Average CVE 24 h ([1]; Run 1, 0.1 μg/ml CDDP): 0.418
- Average CVE 48 h ([1]; Run 1, 0.1 μg/ml CDDP): 0.541
- Average CVE 72 h ([1]; Run 1, 0.1 μg/ml CDDP): 0.684
- Average CVE 24 h ([1]; Run 1, 1 μg/ml CDDP): 0.327
- Average CVE 48 h ([1]; Run 1, 1 μg/ml CDDP): 0.252
- Average CVE 72 h ([1]; Run 1, 1 μg/ml CDDP): 0.558
- Average CVE 24 h ([1]; Run 1, 10 μg/ml CDDP): 0.289
- Average CVE 48 h ([1]; Run 1, 10 μg/ml CDDP): 0.467
- Average CVE 72 h ([1]; Run 1, 10 μg/ml CDDP): 0.423
- Average CVE 24 h ([1]; Run 1, 100 μg/ml CDDP): 0.359
- Average CVE 48 h ([1]; Run 1, 100 μg/ml CDDP): 0.306
- Average CVE 72 h ([1]; Run 1, 100 μg/ml CDDP): 0.398
- Average CVE 24 h ([1]; Run 2, 0.1 μg/ml CDDP): 0.463
- Average CVE 48 h ([1]; Run 2, 0.1 μg/ml CDDP): 0.408
- Average CVE 72 h ([1]; Run 2, 0.1 μg/ml CDDP): 0.448
- Average CVE 24 h ([1]; Run 2, 1 μg/ml CDDP): 0.227
- Average CVE 48 h ([1]; Run 2, 1 μg/ml CDDP): 0.29
- Average CVE 72 h ([1]; Run 2, 1 μg/ml CDDP): 0.522
- Average CVE 24 h ([1]; Run 2, 10 μg/ml CDDP): 0.278
- Average CVE 48 h ([1]; Run 2, 10 μg/ml CDDP): 0.207
- Average CVE 72 h ([1]; Run 2, 10 μg/ml CDDP): 0.299
- Average CVE 24 h ([1]; Run 2, 100 μg/ml CDDP): 0.276
- Average CVE 48 h ([1]; Run 2, 100 μg/ml CDDP): 0.237
- Average CVE 72 h ([1]; Run 2, 100 μg/ml CDDP): 0.214
- MTT Average (HT55 (colorectal cancer); HT55, Run 1, 24 h, 0.1 μg/ml CDDP): 0.096
- MTT Average (HT55 (colorectal cancer); HT55, Run 1, 24 h, 1 μg/ml CDDP): 0.02
- MTT Average (HT55 (colorectal cancer); HT55, Run 1, 24 h, 10 μg/ml CDDP): 0.054
- MTT Average (HT55 (colorectal cancer); HT55, Run 1, 24 h, 100 μg/ml CDDP): 0.019
- MTT Average (HT55 (colorectal cancer); HT55, Run 1, 48 h, 0.1 μg/ml CDDP): 0.177
- MTT Average (HT55 (colorectal cancer); HT55, Run 1, 48 h, 1 μg/ml CDDP): 0.015
- MTT Average (HT55 (colorectal cancer); HT55, Run 1, 48 h, 10 μg/ml CDDP): 0.03
- MTT Average (HT55 (colorectal cancer); HT55, Run 1, 48 h, 100 μg/ml CDDP): 0.012
- MTT Average (HT55 (colorectal cancer); HT55, Run 1, 72 h, 0.1 μg/ml CDDP): 0.315
- MTT Average (HT55 (colorectal cancer); HT55, Run 1, 72 h, 1 μg/ml CDDP): 0.025
- MTT Average (HT55 (colorectal cancer); HT55, Run 1, 72 h, 10 μg/ml CDDP): 0.026
- MTT Average (HT55 (colorectal cancer); HT55, Run 1, 72 h, 100 μg/ml CDDP): 0.017
- MTT Average (HT55 (colorectal cancer); HT55 Run 2, 24 h, 0.1 μg/ml CDDP): 0.215
- MTT Average (HT55 (colorectal cancer); HT55 Run 2, 24 h, 1 μg/ml CDDP): 0.023
- MTT Average (HT55 (colorectal cancer); HT55 Run 2, 24 h, 10 μg/ml CDDP): 0.053
- MTT Average (HT55 (colorectal cancer); HT55 Run 2, 24 h, 100 μg/ml CDDP): 0.018
- MTT Average (HT55 (colorectal cancer); HT55 Run 2, 48 h, 0.1 μg/ml CDDP): 0.381
- MTT Average (HT55 (colorectal cancer); HT55 Run 2, 48 h, 1 μg/ml CDDP): 0.028
- MTT Average (HT55 (colorectal cancer); HT55 Run 2, 48 h, 10 μg/ml CDDP): 0.031
- MTT Average (HT55 (colorectal cancer); HT55 Run 2, 48 h, 100 μg/ml CDDP): 0.025
- MTT Average (HT55 (colorectal cancer); HT55 Run 2, 72 h, 0.1 μg/ml CDDP): 0.488
- MTT Average (HT55 (colorectal cancer); HT55 Run 2, 72 h, 1 μg/ml CDDP): 0.032
- MTT Average (HT55 (colorectal cancer); HT55 Run 2, 72 h, 10 μg/ml CDDP): 0.028
- MTT Average (HT55 (colorectal cancer); HT55 Run 2, 72 h, 100 μg/ml CDDP): 0.021
- MTT Average (HT55 (colorectal cancer); HT55 Run 3, 24 h, 0.1 μg/ml CDDP): 0.205
- MTT Average (HT55 (colorectal cancer); HT55 Run 3, 24 h, 1 μg/ml CDDP): 0.035
- MTT Average (HT55 (colorectal cancer); HT55 Run 3, 24 h, 10 μg/ml CDDP): 0.206
- MTT Average (HT55 (colorectal cancer); HT55 Run 3, 24 h, 100 μg/ml CDDP): 0.028
- MTT Average (HT55 (colorectal cancer); HT55 Run 3, 48 h, 0.1 μg/ml CDDP): 0.331
- MTT Average (HT55 (colorectal cancer); HT55 Run 3, 48 h, 1 μg/ml CDDP): 0.04
- MTT Average (HT55 (colorectal cancer); HT55 Run 3, 48 h, 10 μg/ml CDDP): 0.361
- MTT Average (HT55 (colorectal cancer); HT55 Run 3, 48 h, 100 μg/ml CDDP): 0.038
- MTT Average (HT55 (colorectal cancer); HT55 Run 3, 72 h, 0.1 μg/ml CDDP): 0.359
- MTT Average (HT55 (colorectal cancer); HT55 Run 3, 72 h, 1 μg/ml CDDP): 0.032
- MTT Average (HT55 (colorectal cancer); HT55 Run 3, 72 h, 10 μg/ml CDDP): 0.353
- MTT Average (HT55 (colorectal cancer); HT55 Run 3, 72 h, 100 μg/ml CDDP): 0.031
